The source of these data is US20250295668A1, “METHODS FOR INDUCING COLANIC ACID BIOSYNTHESIS” (priority 2024, published 2025).

The target in one test is PBP4 (Escherichia coli, UniProt P24228). As to conditions: literature, PMID 25733506; cited from earlier work.
A further test has as its system cps operon. Description: Disk diffusion assay for cps induction, SG20781 cpsB::lacZ reporter. Type of test: cell-based, E. coli. As to conditions: SG20781, filter paper disks 10 or 100 μg, 24 hours at 37° C. The procedure:
For antibiotic screening targeting cps expression, the SG20781 strain (MC4100 lon+cpsB10::lacZ Mu-immλ) was used. The bacteria were cultured overnight at 37° C. in Luria-Broth (LB) medium and evenly plated on X-gal (40 μg/mL) supplemented LB agar plates, and incubated overnight.
E. coli strain SG20781 was used to assess antibiotic cps induction via disk diffusion as previously described [PMID: 14553918]. In brief, an overnight bacteria culture was spread onto LB agar containing 0.1 mg ml-1 5-bromo-4-chloro-3-indolyl-β-D-galactoside (X-gal). […] The soaked filter papers were placed onto the bacteria-seeding plates and incubated for 24 hours at 37° C.
Certain β-lactam antibiotics trigger the overexpression of the cps operon in E. coli [PMID: 14553918]. To validate this finding, a disk diffusion assay was performed using SG20781, an E. coli strain that harbors a LacZ reporter for the cps operon transcriptional regulation. Using a colorimetric assay, an increased level of […] reacts with X-gal, resulting in an intensified blue coloration as a result of the transcriptional up-regulation of the cps operon.
For orientation: In agar diffusion tests the substance spreads into inoculated agar from a disc or well.

The next test concerns wildtype E. coli. In words: Colanic acid measurement (fucose quantification) in wildtype E. coli culture medium. Format: cell-based. As for the experimental part: For colanic acid quantification, E. coli Keio mutants and the parental strain BW25113 were cultured overnight at 37° C. in M9 minimum medium [PMID: 28436966]. Bacteria were then removed by centrifugation and filtered for colanic acid measurement.
The desired bacterial strain was first inoculated and cultured in M9 minimum medium overnight at 37° C. to obtain the seeding culture. The OD 600 was measured, and the seeding bacteria were diluted to OD600=0.02 in M9 minimum medium for another 16 hours. After the incubation, bacterial cultures were collected in 50 mL tubes, spun down at 4,000 g at 4° C. for 30 min, filtered, and 25 mL of supernatant was collected per 50 ml conical tube. Ice-cold 100% ethanol (EtOH) was added to make a final 50% EtOH solution for precipitation, and the mixture was kept at 4° C. overnight. Once precipitation occurred, the liquid was carefully removed after centrifugation at 4,000 g at 4° C. for 50 min. The pellet was washed once with cold 80% EtOH and then air-dried in a hood. The pellet from every 50 mL culture was resuspended in 500 μL distilled H2O. The solution was sonicated for 60 minutes at 37° C., followed by centrifugation at 4000 g at 4° C. for 10 minutes. A 200 μL sample was mixed with 30 μL hydrochloric acid (320331-500 mL, Sigma-Aldrich) and boiled for 2 hours. Subsequently, 60 μL 5M NaOH and 150 μL NaHCO3/NaOH buffer were added to reach a pH of 6-8, calibrated by 1M HCl or NaOH solutions. The fucose quantification assay was then carried out using a K-FUCOSE kit (Megazyme) according to the manufacturer's protocol.
Next, colanic acid in the bacteria culture medium was quantified via monosaccharide-fucose-from acid-hydrolyzed polysaccharide precipitates. […] Calculations were performed to determine the equivalent dosage by weight in a mammalian subject. Briefly, a typical mouse consumes 5-10 ml of water per day and weighs between 30-40 g. Using the 1.8 μg/mL concentration, a lower bound of 0.225 mg/kg (0.0018 mg/mL×5 ml[…]0.04 kg) and a higher bound of 0.6 mg/kg (0.0018 mg/mL×10 ml÷0.03 kg) were identified. […] In wild-type bacteria treated with cephaloridine and Alon E. coli mutants colanic acid production increased during the exponential growth phase and remained elevated in the stationary phase (FIG. 1D).

In the case of `CC1(C)S[C@@H]2[C@H](NC(=O)[C@H](N)c3ccccc3)C(=O)N2[C@H]1C(=O)O` [ampicillin], the “affinity for PBP4” value on PBP4 is on record as “higher affinity for PBP4”. Moreover, the “cps induction (blue coloration)” value in the test with cps operon is given as “promote various shades of blue coloration”.
Take `CC1(C)S[C@@H]2[C@H](NC(=O)C(C(=O)O)c3ccccc3)C(=O)N2[C@H]1C(=O)O` (stereo partly shown) [carbenicillin]: in the test on cps operon, the “cps induction (blue coloration)” value is listed as “promote various shades of blue coloration”.
In the case of `Cc1nnc(SCC2=C(C(=O)O)N3C(=O)[C@@H](NC(=O)Cn4cnnn4)[C@H]3SC2)s1` [cefazolin], the “cps induction (blue coloration)” value in the test with cps operon is “promote various shades of blue coloration”.
Turning to `CO/N=C(\C(=O)N[C@@H]1C(=O)N2C(C(=O)O)=C(COC(N)=O)CS[C@H]12)c1ccco1` [cefuroxime], the “cps induction (blue coloration)” value in the test with cps operon is reported as “promote various shades of blue coloration”.
As for `CC(=O)OCC1=C(C(=O)O)N2C(=O)[C@@H](NC(=O)Cc3cccs3)[C@H]2SC1` [cephalothin], the “cps induction (blue coloration)” value with cps operon is listed as “promote various shades of blue coloration”. Besides, the “colanic acid production vs untreated wildtype control” value in the test with wildtype E. coli (cephalothin 0.625 μg/mL) is 3.5 fold.
For the compound `CC1(C)S[C@@H]2[C@H](NC(=O)Cc3ccccc3)C(=O)N2[C@H]1C(=O)O` [penicillin G], the “affinity for PBP4” value on PBP4 is “higher affinity for PBP4”. Besides, the “cps induction (blue coloration)” value in the test with cps operon was “promote various shades of blue coloration”. Also, in the test with wildtype E. coli (penicillin G 5 μg/mL), the “colanic acid production vs untreated wildtype control” value was 3.25 fold.
